Measured values taken from patent US7098306B2, “Method and compositions for treating hepatocellular cancer” (The Regents of the University of California, priority 1997, dated 2006).

Legend:
[1] = system: AFP positive/A2.1+ hepatocellular carcinoma; assay: immunization of hepatocellular carcinoma patients with the four peptides in Montanide ISA-51, peripheral T cell responses by ELISPOT and tetramer; format: in vivo, human; conditions: for in vivo T cell responses: patient AFP-A1, 100 μg each peptide, after the second and third immunization; for T cell responses by tetramer and ELISPOT: patient AFP-A2, following two immunizations
Protocol: The method and compositions of the present invention were used to treat several patients with AFP positive/A2.1+ hepatocellular carcinoma. Each of the patients were immunized with the four peptides hAFP137-145, residues 137–145 of SEQ ID NO:2; hAFP158-166, residues 158–166 of SEQ ID NO:2; hAFP325-334, residues 325–334 of SEQ ID NO:2; and hAFP542-550, residues 542–550 of SEQ ID NO:2, according to the this method. The peptides were emulsified in 0.5 ml of Montanide™ ISA-51 and combined for a total of 2 ml. The emulsified peptides were divided into four equal doses and each dose was administered in a separate site. Peripheral T cell responses are measured by ELISPOT and tetramer assays.
(§1) They were administered three immunizations of 100 μg each of the four peptides in Montanide™ ISA at two week intervals. Parallel in vitro PBMC cultures were also established from the first patient's blood before immunization and repetitively pulsed with each peptide. […] The presence of AFP542-specific T cells could not be assessed by tetramer as an AFP542 peptide tetramer could not be folded by the facility where these reagents are prepared.
The second patient, designated AFP-A2 was a person with a history of ethanol-induced liver cirrhosis, who was negative for both Hepatitis B and C. […] Their AFP level at presentation was 10,400 ng/ml. […] Seven months after presentation, they were then begun on a combination of the four peptides hAFP137-145, residues 137–145 of SEQ ID NO:2; hAFP158-166, residues 158–166 of SEQ ID NO:2; hAFP325-334, residues 325–334 of SEQ ID NO:2; and hAFP542-550, residues 542–550 of SEQ ID NO:2 using the protocol according to the present invention. They received two immunizations two weeks apart.

[2] = system: AdVhAFP/DC immunized murine splenocytes; assay: IFNg ELISPOT restimulation of AdVhAFP/DC immunized murine splenocytes with HPLC fractions eluted from HepG2 or Hep3B; format: cell-based; conditions: HPLC fractions from Hep3B elution
Protocol: To elute peptides, HepG2 and Hep3B cells were washed three times with PBS before being incubated with 5 ml of citrate-phosphate buffer at pH 3.2 for 1 minute. The suspension was centrifuged (800×g for 5 minutes) and a total of 500 ml of cell-free supernatant was collected for each cell line. The materials were lyophilized to dryness and stored at −20° C.
Lyophilized materials were redissolved in 30 ml of water/acetonitrile/triflouroacetic acid (W/A/TFA, 95/5/0.1 all by vol.). This solution was pumped onto an analytical reverse phase HPLC column (Keystone Scientific C18 Betasil, 250 mm×2 mm, […] particle size, 100 Å pore size) equilibrated in W/A/TFA, at a flow rate of 0.2 ml/min. The column was eluted using an increasing linear gradient of 0.1% TFA in acetonitrile (time/%acetonitrile=0/5, 5/5, 55/100, 60/100). Column eluate absorbance was monitored at 215 and 280 nm and 1 minute fractions were collected. The retention times of the synthetic peptides with amino acid sequences corresponding to the immunostimulatory peptides were obtained using the same separation gradient on a separate column.
To confirm the presence of dominant peptides in these fractions immunologically, […] of each HPLC fraction from either HepG2 or Hep3B cells was used to restimulate AdVhAFP/DC immunized murine splenocytes in an ELISPOT assay. 200–250 spots/10^6 cells were observed from fractions containing dominant peptides, where 100–130 spots/10^6 cells were observed from the other fractions, and a maximum of 50 spots/10^6 cells were observed from Hep3B fractions. This further supports the mass spectrometry identification of the dominant peptides.

PBMC cultures = assay: parallel in vitro PBMC cultures of patient AFP-A1 repetitively pulsed with each peptide; format: cell-based, human; conditions: patient AFP-A1, day 28 cultures
Protocol: as §1

| Sequence | in vivo T cell responses [1] | T cell responses by tetramer and ELISPOT [1] | Immunologically Reactive Fractions (IFNg ELISPOT) Hep3B [2] | in vitro recognition by tetramer (PBMC cultures) |
| --- | --- | --- | --- | --- |
| FMNKFIYEI (listed as Homo sapiens) [hAFP158-166, dominant HLA-A*0201 peptide derived from human alpha fetoprotein] | clear recognition | T cell responses were detected | 0 |  |
| GVALQTMKQ (listed as Homo sapiens) [hAFP542-550, dominant HLA-A*0201 peptide derived from human alpha fetoprotein] | clear recognition | T cell responses were detected | 0 |  |
| GLSPNLNRFL (listed as Homo sapiens) [hAFP325-334, dominant HLA-A*0201 peptide derived from human alpha fetoprotein] | trend towards recognition | T cell responses were detected | 0 | clear in vitro recognition |
| PLFQVPEPV (listed as Homo sapiens) [hAFP137-145, dominant HLA-A*0201 peptide derived from human alpha fetoprotein] | clear recognition | T cell responses were detected | 0 | clear in vitro recognition |
